Laboratory results as given in patent US7528124B2, “1,3-dihydro-2H-indol-2-one derivative” (Taisho Pharmaceutical Co., Ltd., priority 2003, dated 2009).
Where two headings read alike, the source gives them in different places.

Test: Measurement of drug concentration in plasma and brain following oral administration to rats (LC/MS/MS)
Assay type: in vivo, Sprague-Dawley rats
Details: rat; for concentration at 1 h: Table 2, 1 hour after administration
Protocol: Measurement of Drug Concentration in Plasma and Brain following Oral Administration to Rats
The compound of Example 1 and compound A (WO01/55130, listed in EXEMPLE 1) were orally administered to Sprague-Dawley rats (male, 8 weeks) at a dose of 5 mL/kg (10 mg/kg) as solutions (each compound was dissolved with 0.03 mol/L HCl containing 5% Cremophor EL, and concentration was prepared by 2 mg/ml).
Blood was collected from the tail vein at 1 and 2 hours after administration. Immediately the brain was excised, 20% homogenate was prepared with distilled water, for assay sample. Similarly, 0.3 mL of blood was collected from the tail vein at 2, 4, 8, and 24 hours following administration, and the plasma following centrifugation was used as a sample.
The concentrations of the compound of Example 1 and compound A in plasma were measured using liquid chromatography tandem mass spectrometry (LC/MS/MS). Specifically, 200 μL of acetonitrile was added to 50 μL of plasma or brain homogenate, vortex mixed and centrifuged. The resulting supernatant was put in a liquid chromatograph with an Agilent Zorbax SB-C18 5 μm column (50 mm long, 2.1 mm in diameter). The elute was 0.1% acetic acid/acetonitrile containing 0.1% acetic acid. The MS/MS detection were performed using a Sciex API3000 LC/MS/MS system with ESI for ionization, in positive ions and MRM mode for monitoring. The m/z 632→472 and m/z 630→472 were monitored for the compound of Example 1 and compound A, respectively.
The concentration of plasma and brain at each sampling point and mean plasma levels after oral administration were shown in Table 2 and Table 3, respectively.

concentration at 1 h (male, Sprague-Dawley, brain, po, 10 mg/kg, brain homogenate, average of three, read-out: Drug concentration, brain, 1 hour): 35 ng/g
concentration at 1 h (male, Sprague-Dawley, plasma, po, 10 mg/kg, average of three, read-out: Drug concentration, plasma, 1 hour): 440 ng/mL
concentration at 2 h (male, Sprague-Dawley, plasma, po, 10 mg/kg, Table 2, 2 hours after administration, average of three, read-out: Drug concentration, plasma, 2 hours): 219 ng/mL
concentration at 2 h (male, Sprague-Dawley, plasma, po, 10 mg/kg, Table 3, serial tail vein sampling, 2 hours, average of three, read-out: Drug concentration in plasma, 2 hours): 139 ng/mL
concentration at 4 h (male, Sprague-Dawley, plasma, po, 10 mg/kg, Table 3, serial tail vein sampling, 4 hours, average of three): 51 ng/mL
concentration at 8 h (male, Sprague-Dawley, plasma, po, 10 mg/kg, Table 3, serial tail vein sampling, 8 hours, average of three): 10 ng/mL
concentration at 2 h (male, Sprague-Dawley, Table 2, oral 10 mg/kg, 2 hours after administration, brain homogenate, average of three, ND: below the quantification detection limit of 5 ng/mL, read-out: Drug concentration, brain, 2 hours): 11 ng/g
plasma levels compared with compound A (oral 10 mg/kg, after 2 hours): higher plasma levels
brain levels compared with compound A (oral 10 mg/kg, at 1 and 2 hours): higher than those of compound A
SMILES: COc1ccc(S(=O)(=O)N2C(=O)C(c3ccccc3OC)(N3C[C@H](F)C[C@H]3C(=O)N(C)C)c3cc(Cl)ccc32)c(OC)c1 (single isomer, unassigned) [Example 1]
